Reference: patent publication US9253983B2, “Triazole compound and use thereof” (KUREHA CORPORATION, priority 2011, dated 2016)

Tests used:
Rhizoctonia solani = assay: Test 1 for antifungal effect, plate medium: R.s; assay type: cell-based; conditions: PDA plate medium
Experimental: (§1) Compound (1-1a) or Compound (1-2a) was dissolved in dimethyl sulfoxide, and the resulting solution was added to a PDA medium (potato dextrose-agar medium) at about 60° C. The medium and the solution were mixed thoroughly in a conical flask, poured into a petri dish, and allowed to solidify. In this way, a plate medium containing Compound (1-1a) or Compound (1-2a) at a certain concentration was prepared.
(§2) Meanwhile, test microorganisms cultured on a plate medium in advance were cut out with the use of a cork borer 4 mm in diameter, and were inoculated onto the compound-containing plate medium. After the inoculation, the microorganisms were cultured at their optimum growth temperatures (for example, refer to LIST OF CULTURES 1996 microorganisms 10th edition, Institute for Fermentation (foundation)) for 1 day to 7 days, and their growth was determined by measuring the diameter of their flora. The extent of growth of the microorganisms on the compound-containing plate medium was compared with that of microorganisms on a plate medium where no compound was added, and mycelial growth inhibition rate was calculated by the following equation: R=100(dc−dt)/dc where R is mycelial growth inhibition rate (%), dc is the flora diameter in untreated plate, and dt is the flora diameter in plate treated with the compound.
(§3) A larger antifungal index indicates a better antifungal effect.

wheat = assay: Growth inhibition (adverse effects) of seed treatment on wheat seeds; assay type: in vivo; conditions: wheat, 20 days after sowing
Experimental: A pot experiment was performed to evaluate the growth inhibition (adverse effects) caused by the seed treatment. Compound (1-1a) and Compound (1-2a), each of which was dissolved in DMSO to make up such a concentration that the seeds would be treated in treatment amount of 2 g to 200 g ai/100 kg seeds, were each applied to wheat seeds in a vial, and thereafter 8 wheat seeds were sowed in an 80-cm^2 pot. The pot was kept in a greenhouse with water supplied to its bottom. 20 days after the sowing, a growth measure of wheat was evaluated. A growth inhibition index was calculated based on the criteria shown by Table 10. In Table 10, a smaller growth inhibition index indicates a lesser adverse effect of growth inhibition caused by the treatment with the use of a plant disease controlling agent.

Microdochium nivale = assay: Test 1 for antifungal effect, plate medium: M.n; assay type: cell-based; conditions: PDA plate medium
Experimental: as §1, §2, §3

Penicillium italicum = assay: Test 2 for antifungal effect, plate medium: P.i; assay type: cell-based; conditions: PDA plate medium
Experimental: (§4) Compound (1-1b) or Compound (1-2b) was dissolved in dimethyl sulfoxide, and the resulting solution was added to a PDA medium (potato dextrose-agar medium) at about 60° C. The medium and the solution were mixed thoroughly in a conical flask, poured into a petri dish, and allowed to solidify. In this way, a plate medium containing Compound (1-1b) or Compound (1-2b) at a certain concentration was prepared.
(§5) Meanwhile, test microorganisms cultured on a plate medium in advance were cut out with the use of a cork borer 4 mm in diameter, and were inoculated onto the compound-containing plate medium. After the inoculation, the pathogens were cultured at their optimum growth temperatures (for example, refer to LIST OF CULTURES 1996 microorganisms 10th edition, Institute for Fermentation (foundation)) for 1 day to 7 days, and their growth was determined by measuring the diameter of their flora. The extent of growth of the pathogens on the compound-containing plate medium was compared with that of pathogens on a plate medium where no compound was added, and mycelial growth inhibition rate was calculated as in Experiment Example 10. Note that, in Experiment Example 11, controls used in the antifungal effect tests are Compound (1-1a) and Compound (1-2a) instead of Compound (1-1b) and Compound (1-2b), respectively.
(§6) The results were rated on a 1-to-5 scale as in Experiment Example 10.

Fusarium oxysporum = assay: Test 2 for antifungal effect, plate medium: F.c; assay type: cell-based; conditions: PDA plate medium
Experimental: as §4, §5, §6

Alternaria alternata = assay: Test 1 for antifungal effect, plate medium: A.m; assay type: cell-based; conditions: PDA plate medium
Experimental: as §1, §2, §3

Septoria tritici = assay: Test 2 for antifungal effect, plate medium: S.t; assay type: cell-based; conditions: PDA plate medium
Experimental: as §4, §5, §6

Puccinia recondita = assay: Efficacy of seed treatment on wheat brown rust; assay type: in vivo; conditions: wheat seed treatment 20 g ai/100 kg seeds, 12 days after inoculation
Experimental: A pot experiment was performed to evaluate the efficacy of seed treatment in controlling wheat leaf rust. Compound (1-1a) and Compound (1-2a), each of which was dissolved in DMSO to make up such a concentration that the seeds would be treated in treatment amount of 20 g ai/100 kg seeds, were each applied to wheat seeds in a vial, and thereafter 8 wheat seeds were sowed on an 80-cm^2 pot. The pot was kept in a greenhouse with water supplied to its bottom. 21 days after the sowing, the wheat seeds were inoculated with Puccinia recondita, and kept in a wet box for 2 days. After that, the pot was again kept in the greenhouse with water supplied to its bottom. 12 days after the inoculation, the percentage of affected area was found, and the protective value was calculated by the following equation. Protective value (%)=(1−(Percentage of affected area in treated region/Percentage of affected area in untreated region))×100

Botrytis cinerea = assay: Controlling effect on cucumber gray mold by foliage spray treatment (Tests 1 and 2); assay type: in vivo; conditions: foliage spray 12.5 mg/L, 1,000 L/ha, four days after inoculation
Experimental: The cucumber plants had been grown in square plastic pots (6 cm×6 cm). After the suspension was then left to dry, paper discs (8 mm in diameter) impregnated with a spore suspension of Botrytis cinerea w ere placed on the leaves, and the plants were kept at 20° C. in a high humidity environment. Four days after inoculation, the lesion degree of the cucumber gray mold was examined in accordance with the criteria shown in Table 1, and the protective values were calculated by the following equation: Protective value (%)=(1−Average lesion degree in sprayed plot/Average lesion degree in unsprayed plot)×100.
The cucumber plants had been grown in square plastic pots (6 cm×6 cm). After the leaves were air-dried, paper discs (8 mm in diameter) impregnated with a spore suspension of cucumber graymold-causing microorganisms were placed on the leaves, and the plants were kept at 20° C. in a high humidity environment. 4 days after the inoculation, the lesion degree of the cucumber gray mold was examined, and the protective values were calculated as were in Experiment Example 1.

Compound: CC1(CCl)CCC(Cc2ccc(Cl)cc2)C1(O)Cn1cncn1 (single isomer, unassigned) [Compound (1-1a), (1,2-cis, 1,5-cis)-5-(4-chlorobenzyl)-2-chloromethyl-2-methyl-1-(1H-1,2,4-triazole-1-ylmethyl)cyclopentanol]
- Antifungal index (mycelial growth inhibition rate) (Rhizoctonia solani; 0.16 mg/L): 2 (Less than 70% but not less than 60%)
- Antifungal index (mycelial growth inhibition rate) (Rhizoctonia solani; 0.31 mg/L): 2 (Less than 70% but not less than 60%)
- Antifungal index (mycelial growth inhibition rate) (Rhizoctonia solani; 0.63 mg/L): 2 (Less than 70% but not less than 60%)
- Antifungal index (mycelial growth inhibition rate) (Rhizoctonia solani; 1.25 mg/L): 2 (Less than 70% but not less than 60%)
- Antifungal index (mycelial growth inhibition rate) (Rhizoctonia solani; 2.50 mg/L): 3 (Less than 80% but not less than 70%)
- Growth inhibition index (wheat; treatment amount 2 g ai/100 kg seeds): 0 (50% or more)
- Growth inhibition index (wheat; treatment amount 20 g ai/100 kg seeds): 0 (50% or more)
- Growth inhibition index (wheat; treatment amount 200 g ai/100 kg seeds): 0 (50% or more)
- Antifungal index (mycelial growth inhibition rate) (Microdochium nivale; 0.16 mg/L): 1 (Less than 60%)
- Antifungal index (mycelial growth inhibition rate) (Microdochium nivale; 0.31 mg/L): 3 (Less than 80% but not less than 70%)
- Antifungal index (mycelial growth inhibition rate) (Microdochium nivale; 0.63 mg/L): 3 (Less than 80% but not less than 70%)
- Antifungal index (mycelial growth inhibition rate) (Microdochium nivale; 1.25 mg/L): 4 (Less than 90% but not less than 80%)
- Antifungal index (mycelial growth inhibition rate) (Microdochium nivale; 2.50 mg/L): 5 (90% or greater)
- Antifungal index (mycelial growth inhibition rate) (Penicillium italicum; 0.04 mg/L): 1 (Less than 60%)
- Antifungal index (mycelial growth inhibition rate) (Penicillium italicum; 0.08 mg/L): 4 (Less than 90% but not less than 80%)
- Antifungal index (mycelial growth inhibition rate) (Penicillium italicum; 0.16 mg/L): 4 (Less than 90% but not less than 80%)
- Antifungal index (mycelial growth inhibition rate) (Penicillium italicum; 0.31 mg/L): 5 (90% or greater)
- Antifungal index (mycelial growth inhibition rate) (Penicillium italicum; 0.63 mg/L): 5 (90% or greater)
- Antifungal index (mycelial growth inhibition rate) (Penicillium italicum; 1.25 mg/L): 5 (90% or greater)
- Antifungal index (mycelial growth inhibition rate) (Fusarium oxysporum; 0.04 mg/L): 1 (Less than 60%)
- Antifungal index (mycelial growth inhibition rate) (Fusarium oxysporum; 0.08 mg/L): 3 (Less than 80% but not less than 70%)
- Antifungal index (mycelial growth inhibition rate) (Fusarium oxysporum; 0.16 mg/L): 4 (Less than 90% but not less than 80%)
- Antifungal index (mycelial growth inhibition rate) (Fusarium oxysporum; 0.31 mg/L): 4 (Less than 90% but not less than 80%)
- Antifungal index (mycelial growth inhibition rate) (Fusarium oxysporum; 0.63 mg/L): 5 (90% or greater)
- Antifungal index (mycelial growth inhibition rate) (Fusarium oxysporum; 1.25 mg/L): 5 (90% or greater)
- Antifungal index (mycelial growth inhibition rate) (Alternaria alternata; 0.16 mg/L): 1 (Less than 60%)
- Antifungal index (mycelial growth inhibition rate) (Alternaria alternata; 0.31 mg/L): 4 (Less than 90% but not less than 80%)
- Antifungal index (mycelial growth inhibition rate) (Alternaria alternata; 0.63 mg/L): 4 (Less than 90% but not less than 80%)
- Antifungal index (mycelial growth inhibition rate) (Alternaria alternata; 1.25 mg/L): 5 (90% or greater)
- Antifungal index (mycelial growth inhibition rate) (Alternaria alternata; 2.50 mg/L): 5 (90% or greater)
- Antifungal index (mycelial growth inhibition rate) (Septoria tritici; 0.04 mg/L): 1 (Less than 60%)
- Antifungal index (mycelial growth inhibition rate) (Septoria tritici; 0.08 mg/L): 1 (Less than 60%)
- Antifungal index (mycelial growth inhibition rate) (Septoria tritici; 0.16 mg/L): 1 (Less than 60%)
- Antifungal index (mycelial growth inhibition rate) (Septoria tritici; 0.31 mg/L): 1 (Less than 60%)
- Antifungal index (mycelial growth inhibition rate) (Septoria tritici; 0.63 mg/L): 1 (Less than 60%)
- Antifungal index (mycelial growth inhibition rate) (Septoria tritici; 1.25 mg/L): 1 (Less than 60%)
- Protective value (%) (Puccinia recondita): 90%
- Protective value (%) (Botrytis cinerea): 100%
